According to ChEMBL document CHEMBL1147808, “Protein tyrosine phosphatase 1B inhibitory activity of triterpenes isolated from Astilbe koreana” (Bioorg Med Chem Lett, 2006):

Biological target: T1, Tyrosine-protein phosphatase non-receptor type 1 (Homo sapiens, UniProt P18031)
T1 sequence (P18031 whole entry): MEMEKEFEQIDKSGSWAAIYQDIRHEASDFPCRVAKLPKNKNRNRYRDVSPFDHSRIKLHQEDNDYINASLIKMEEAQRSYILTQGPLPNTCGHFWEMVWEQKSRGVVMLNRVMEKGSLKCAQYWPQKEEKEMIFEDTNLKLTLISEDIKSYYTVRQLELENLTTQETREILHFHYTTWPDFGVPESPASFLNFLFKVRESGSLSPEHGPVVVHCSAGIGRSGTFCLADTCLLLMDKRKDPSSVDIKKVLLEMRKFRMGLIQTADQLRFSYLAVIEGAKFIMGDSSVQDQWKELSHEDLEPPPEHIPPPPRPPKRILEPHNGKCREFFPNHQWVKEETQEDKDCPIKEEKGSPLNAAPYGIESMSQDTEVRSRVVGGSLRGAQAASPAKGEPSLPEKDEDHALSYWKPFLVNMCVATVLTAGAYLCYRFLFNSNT
Assay: Inhibition of human recombinant PTP1B

`CC1(C)CC[C@]2(C)CC[C@]3(C(=O)O)C(=CC[C@@H]4[C@@]5(C)CCC(=O)C(C)(C)[C@@H]5CC[C@]43C)[C@@H]2C1` and `CC1(C)CC[C@]2(C)CC[C@]3(C(=O)O)C(=CC[C@@H]4[C@@]5(C)CC[C@H](O)C(C)(C)C5CC[C@]43C)[C@@H]2C1` (some centres undefined) are within 1.5-fold of each other in IC50: 6.8 µM for the first, 5.2 µM for the second.

First: COC(=O)[C@@]12CC[C@@]3(C)CCC(C)(C)C[C@H]3C1=CC[C@@H]1[C@@]3(C)CC[C@H](O)C(C)(C)C3CC[C@]12C (some centres undefined)
Second: CC(=O)O[C@H]1CC[C@@]2(C)C(CC[C@]3(C)[C@@H]2CC=C2[C@@H]4CC(C)(C)CC[C@]4(C)CC[C@]23C(=O)O)C1(C)C (some centres undefined)
The IC50 of the first is 1.9-fold higher: 16 µM for the first, 8.5 µM for the second. The second is the more potent here.

`CC1(C)CC[C@]2(C)CC[C@]3(C(=O)O)C(=CC[C@@H]4[C@@]5(C)CC[C@@H](O)[C@](C)(CO)C5CC[C@]43C)[C@@H]2C1` (some centres undefined) and `CC1(C)CC[C@]2(C)CC[C@]3(C(=O)O)C(=CC[C@@H]4[C@@]5(C)CC[C@H](O)C(C)(C)C5[C@H](O)C[C@]43C)[C@@H]2C1` (some centres undefined) are within 1.5-fold of each other in IC50: 11.7 µM for the first, 12.8 µM for the second.

Going from `C[C@H]1[C@H](C)CC[C@]2(C)CC[C@]3(C(=O)O)C(=CC[C@@H]4[C@@]5(C)CC[C@H](O)C(C)(C)C5CC[C@]43C)[C@H]12` (some centres undefined) to `COC(=O)[C@@]12CCC3C(=CC[C@H]4[C@@]3(C)CCC3C(C)(C)[C@@H](O)CC[C@@]34C)[C@@H]1CC(C)(C)CC2` (some centres undefined), the IC50 rises from 4.9 µM to 14.2 µM (2.9-fold). The first is the more potent here.

`CC1(C)[C@@H](O[C@H]2O[C@H](C(=O)O)[C@@H](O)[C@H](O)[C@H]2O[C@@H]2O[C@H](C(=O)O)[C@@H](O)[C@H](O)[C@H]2O)CC[C@]2(C)[C@H]3C(=O)C=C4[C@@H]5C[C@@](C)(C(=O)O)CC[C@]5(C)CC[C@@]4(C)[C@]3(C)CC[C@@H]12` [GLYCYRRHIZIN] was tested, and the IC50 was greater than 100 µM.
